Experimental data taken from the supplement of paper PMC6470124.

Tests used:
[1] = absolute recovery over mixed-bed multilayer solid-phase extraction; higher = better recovery; conditions: enrichment method: SPE
Outline: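 Absolute recovery rests on background-corrected response ratios of pre- versus post-spiked samples, averaged over at least two replicates. Wastewater (100–250 mL, pH 6.5, glass-fibre filtered) was spiked at 1000 ng/L and unfiltered nanopure water (1000 mL) at 200 ng/L, before or after three-layer mixed-bed cartridge extraction or not at all, with exceptions for some classes. Analysis after internal standard addition used liquid chromatography with high-resolution tandem mass spectrometry in both ionisation modes.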

[2] = absolute recovery over vacuum-assisted evaporative concentration; higher = better recovery; conditions: enrichment method: VEC
Outline: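 Standards were spiked into water samples before concentration, after concentration or not at all; volumes were 6 mL influent, 15 mL effluent and 60 mL surface or nanopure water. Spiking levels were 200 ng/L for nanopure and surface water and 1000 ng/L for wastewater, adjusted by class and compound. After evaporation at 55 °C and 20 mbar to about 0.3 mL, samples were brought to 0.4 mL, centrifuged, given internal standards and analysed by LC-HRMS/MS. Absolute recovery equals (response ratio pre − unspiked)/(post − unspiked) × 100, based on averages of ≥ 2 replicates.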

[3] = LC retention time (Atlantis T3, 5-95% MeOH gradient, 0.1% formic acid); higher = more retained / less polar
Outline: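 Retention times were recorded for reference standards (purity ≥ 95%) on a polar reversed-phase C18 column (Atlantis T3, 3 × 150 mm, 3 μm) at 0.3 mL/min. Elution used water and methanol, each with 0.1% formic acid, in a gradient from 5 to 95% methanol over 17.5 min. Detection was by high-resolution tandem mass spectrometry on a QExactive Plus, with positive and negative electrospray in separate runs. Peaks were found and integrated in TraceFinder (5 ppm tolerance, at least three points per peak) and then checked by hand.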

| absolute recovery ([1]; nanopure water) [%] | absolute recovery ([1]; surface water) [%] | absolute recovery ([1]; wastewater effluent) [%] | absolute recovery ([2]; wastewater effluent) [%] | absolute recovery ([2]; wastewater influent) [%] | LC retention time [3] [min] | absolute recovery ([1]; wastewater influent) [%] | SMILES |
| --- | --- | --- | --- | --- | --- | --- | --- |
| 97.9 | 97.8 | 89.8 | 112 | 107 | 14.5 | 90.1 | Cc1nnc(-c2ccccc2)c(=O)[n-]1 [Metamitron-Desamino] |
| 93.7 | 91.2 | 93 | 106 | 99.5 | 19.1 | 92.4 | CC(C)N(C(=O)C(=O)[O-])c1ccc(F)cc1 [Flufenacet-OXA] |
| 96.8 | 38 | 92.6 | 101 | 109 | 12.1 | 95.3 | CS(=O)(=O)c1ccc(C(=O)[O-])c(Cl)c1 [Sulcotrion-CMBA] |
| 78.6 | 70.5 | 75.3 | 59.5 | 70.2 | 19.3 | 91.5 | CC=CC(=O)N(CC)c1ccccc1C [Crotamiton] |
| 85.5 | 71.8 | 81.5 | 97.4 | 134 | 20.1 | 89.8 | CON=C(C(=O)[O-])c1ccccc1COc1ccccc1C [Kresoxim-methyl-acid] |
| 14.5 | 3.4 | 9.1 | 30 | – | 4.15 | 7.8 | Nc1ccc(C=Cc2ccc(N)cc2S(=O)(=O)[O-])c(S(=O)(=O)[O-])c1 [4-4-diamino-2,2-stilbenedisulfonic-acid] |
| 98 | 57.1 | 89.3 | 98.9 | 104 | 9.31 | 93.6 | CS(=O)(=O)c1ccc(C(=O)[O-])c([N+](=O)[O-])c1 [Mesotrion-MNBA] |
| 101 | 95.7 | 93.3 | 102 | 97.7 | 21.9 | – | Cc1cccc(Nc2ccccc2C(=O)[O-])c1C [Mefenamic-acid] |
| 77.2 | 73.9 | 72.6 | 105 | – | 11.7 | 73.8 | O=C([O-])c1cn(C2CC2)c2cc(N3CC[NH2+]CC3)c(F)cc2c1=O [Ciprofloxacin] |
| 94.1 | – | 96.5 | 98.1 | 104 | 14.2 | – | NS(=O)(=O)c1cc(C2(O)NC(=O)c3ccccc32)ccc1Cl (stereo not given) [Chlorthalidon] |
| 90.8 | 95.6 | 94.2 | 106 | 107 | 10.5 | 96.6 | CC(=O)Nc1nnc(S([NH-])(=O)=O)s1 [Acetazolamide] |
| 86.5 | 90 | 85.3 | 102 | 92.6 | 11.3 | 86.5 | CC[NH+](CC)CCNC(=O)c1cc(Cl)c(N)cc1OC [Metoclopramid] |
| 96.9 | 97.3 | 90.7 | 104 | 99.4 | 18.7 | 92.5 | CCOc1nc2cccc(C(=O)[O-])c2n1Cc1ccc(-c2ccccc2-c2nnn[n-]2)cc1 [Candesartan] |
| 100 | 95.5 | 89.9 | 100 | 95.6 | 15.9 | 136 | CN(C)S(=O)(=O)Nc1ccccc1 [DMSA (=N-N-Dimethylaminosulfanilid)] |
| 96.4 | 92.6 | 93.5 | 101 | 97.7 | 18 | 99.1 | COC=C(C(=O)[O-])c1ccccc1Oc1cc(Oc2ccccc2C#N)ncn1 [Azoxystrobin-acid] |
| 50 | 41.1 | 53.3 | 48 | 36.3 | 12.6 | 58.7 | COC(=O)C(Cc1ccccc1)NC(=O)C([NH3+])CC(=O)[O-] (stereo not given) [Aspartam] |

Continued, compound first:

| SMILES | absolute recovery ([1]; nanopure water) [%] | absolute recovery ([1]; surface water) [%] | absolute recovery ([1]; wastewater effluent) [%] | absolute recovery ([2]; wastewater effluent) [%] | absolute recovery ([2]; wastewater influent) [%] | LC retention time [3] [min] | absolute recovery ([1]; wastewater influent) [%] |
| --- | --- | --- | --- | --- | --- | --- | --- |
| CC(=NC#N)N(C)Cc1ccc(Cl)nc1 [Acetamiprid] | 110 | 93.8 | 89 | 102 | 90.8 | 14.3 | – |
| Cn1nnc2ccccc21 [1-Methyl-Benzotriazol] | 89.4 | 93.1 | 88.8 | 83.9 | 82.1 | 14 | 103 |
| N#CCNC(=O)c1cnccc1C(F)(F)F [Flonicamid] | 96.3 | 101 | 99.5 | 99.6 | 106 | 12.2 | 96 |
| N#Cc1nn(-c2c(Cl)cc(C(F)(F)F)cc2Cl)c(N)c1S(=O)C(F)(F)F (stereo not given) [Fipronil] | 99 | 95.7 | 94.2 | 103 | 98.5 | 20.4 | 88.5 |
| COc1nc(C)nc(NC(=O)[N-]S(=O)(=O)c2ccccc2CCC(F)(F)F)n1 [Prosulfuron] | 106 | 113 | 104 | 108 | 102 | 19.3 | 102 |
| CCC1OC(=O)CC(O)C(C)C(OC2OC(C)C(OC3CC(C)(O)C(O)C(C)O3)C([NH+](C)C)C2O)C(CC=O)CC(C)C(=O)C=CC(C)=CC1COC1OC(C)C(O)C(OC)C1OC (stereo not given) [Tylosin] | 65.9 | 56.4 | 64.9 | 66.4 | 77.5 | 15.8 | 72.2 |
| O=C([O-])C=C(F)C(F)(F)C(F)(F)C(F)(F)C(F)(F)C(F)(F)F [6-2-FTUCA] | 69.6 | 89.6 | 97.8 | 143 | 97.7 | 23.2 | 77.9 |
| CCCCOc1ccc(OCCC[NH+]2CCOCC2)cc1 [Pramoxine] | 87.7 | 95.3 | 89.4 | 105 | 91 | 15.1 | 84 |
| O=C(Nc1ccc(F)cc1F)c1cccnc1Oc1cccc(C(F)(F)F)c1 [Diflufenican] | 96.6 | 92.4 | 88 | 106 | 101 | 21.4 | 87.2 |
| CCCC(C)(COC(N)=O)COC(=O)NC(C)C (stereo not given) [Carisoprodol] | 99.3 | 97.9 | 93.1 | 104 | 102 | 18.1 | 92.4 |
| O=C(NCCc1ncc(C(F)(F)F)cc1Cl)c1ccccc1C(F)(F)F [Fluopyram] | 101 | 93.4 | 93 | 105 | 54.9 | 19.9 | 102 |
| CC(C1CC1)C(O)(Cn1cncn1)c1ccc(Cl)cc1 (stereo not given) [Cyproconazol] | 99.4 | 88.2 | 87.6 | 92.9 | 95.8 | 20.1 | 93.5 |
| CC(=O)N(C)N(C(=O)C(=O)N(C)C)c1ccccc1 [AMDOPH] | 94.8 | 93.2 | 93.2 | 114 | 114 | 13.9 | 90.8 |
| CN1CC[NH+]=C(c2ccccc2)c2cc(Cl)ccc21 [Medazepam] | 83.9 | 95.2 | 93.6 | 103 | 109 | 14.5 | 68.8 |
| CC(Oc1ccc(Oc2ncc(C(F)(F)F)cc2Cl)cc1)C(=O)[O-] (stereo not given) [Haloxyfop] | 84.3 | 73.9 | 84.4 | 102 | 95.4 | 21 | 95.4 |
| CCNC(=O)C(C)OC(=O)Nc1ccccc1 (stereo not given) [Carbetamid] | 94.2 | 100 | 94.9 | 118 | 101 | 16.5 | 88.7 |
| C[NH+]=C([N-][N+](=O)[O-])NCc1cnc(Cl)s1 [Clothianidin] | – | 95.6 | – | 104 | 106 | 13.8 | 94.1 |
| CCOC(=O)C1=NOC(c2ccccc2)(c2ccccc2)C1 [Isoxadifen-ethyl] | 82.7 | 93.3 | 103 | 26.4 | – | 20.6 | 62.5 |

| SMILES | absolute recovery ([1]; nanopure water) [%] | absolute recovery ([1]; surface water) [%] | absolute recovery ([1]; wastewater effluent) [%] | absolute recovery ([2]; wastewater effluent) [%] | absolute recovery ([2]; wastewater influent) [%] | LC retention time [3] [min] | absolute recovery ([1]; wastewater influent) [%] |
| --- | --- | --- | --- | --- | --- | --- | --- |
| C[NH+](C)CCOC(c1ccccc1)c1ccccc1 [Diphenhydramine] | 88.9 | 97 | 91.1 | 104 | 103 | 14.6 | 77.8 |
| CCCC(CCC)(C(=O)[O-])C(=O)O [Dipropylmalonic-acid] | 94.4 | 88.7 | 94.7 | 103 | 109 | 18.2 | 87.9 |
| CC(C)C([NH3+])C(=O)OCC(CO)OCn1cnc2c(=O)[nH+]c(N)[nH]c21 (stereo not given) [Valganciclovir] | 82.7 | 63.7 | 69.7 | 83.6 | 72.2 | 7.61 | 69.5 |
| CC1(C(=O)Nc2ccc(O)c(Cl)c2Cl)CCCCC1 [Fenhexamid] | 102 | – | – | 92.1 | 96.3 | 20.1 | 97 |
| C[NH2+]CC(c1ccc(O)cc1)C1(O)CCCCC1 (stereo not given) [N-O-Didesvenlafaxin] | 80 | 79.7 | 76 | 106 | 100 | 12.1 | 83.4 |
| COc1ccc(C(=CC(=O)N2CCOCC2)c2ccc(Cl)cc2)cc1OC [Dimethomorph] | 98.4 | 81.4 | 81.4 | 116 | 95.7 | 19.5 | 91.4 |
| CCC1OC(=O)C(C)C(OC2CC(C)(OC)C(O)C(C)O2)C(C)C(OC2OC(C)CC([NH+](C)C)C2O)C(C)(OC)CC(C)C(=O)C(C)C(O)C1(C)O (stereo not given) [Clarithromycin] | 89.7 | 98.5 | 91 | 100 | 105 | 16.9 | 85.1 |
| CCN(CC)C(=O)C(C)Oc1cccc2ccccc12 (stereo not given) [Napropamid] | 96.6 | 90.8 | 89.3 | 88.4 | 90.9 | 20.3 | 96.1 |
| CC(C)Nc1nc(O)nc(NC(C)C)n1 [Propazine-2-hydroxy I] | 103 | 96.9 | 94.2 | 104 | 113 | 12.7 | 88 |
| CCC(C)(C)C(=O)OC1=C(c2ccc(Cl)cc2Cl)C(=O)OC12CCCCC2 [Spirodiclofen] | – | 12.2 | 18 | 77.8 | 44.4 | 23.8 | – |
| CC(C)N(C(=O)CCl)c1ccccc1 [Propachlor] | 84.3 | 87 | 81.1 | 83.8 | 76.9 | 18.4 | 93.3 |
| CN1C(=O)CN=C(C2=CCCCC2)c2cc(Cl)ccc21 [Tetrazepam] | 86.9 | 63.8 | 64.4 | 105 | 100 | 19.9 | 72.4 |
| CCC(=[NH+]OCC=CCl)C1=C([O-])CC(C2CCOCC2)CC1=O (stereo not given) [Tepraloxydim] | 98.7 | 90.1 | 92.9 | 114 | 102 | 19 | – |
| c1ccc2[nH]nnc2c1 [Benzotriazol] | 99.4 | – | – | 104 | 102 | 13.4 | 95.1 |
| COC(=O)c1ccccc1S(=O)(=O)[N-]C(=O)Nc1nc(C)nc(OC)n1 [Metsulfuron-methyl] | 98.1 | 95.2 | 95.9 | 102 | 105 | 17 | – |
| CCCOC(=O)NCCC[NH+](C)C [Propamocarb] | 83 | 83.9 | 84.1 | 105 | 105 | 8.99 | 86.5 |
| O=C(C1CCCCC1)N1CC(=O)N2CCc3ccccc3C2C1 (stereo not given) [Praziquantel] | 98.3 | 86.5 | 87.2 | 88.4 | 89.8 | 19.5 | 98.8 |
| CON(C)C(=O)Nc1ccc(Cl)cc1 [Monolinuron] | – | 92.4 | 91.9 | 92.7 | – | 17.9 | 94.2 |
